Calls of active or inactive are those of the source. The rule behind the calls is not given here.
Tested on: CCRIS mutagenicity, Ames/micronucleus/aberration tests
Assay: CCRIS mutagenicity studies

In the case of `O=C([O-])c1ccccn1.O=C([O-])c1ccccn1.O=C([O-])c1ccccn1.[Cr+3]`, the mutagenic call (End Point: In vivo chromosomal aberrations, Test System: Bone marrow cells, Species: Rat, Strain/Sex: Sprague-Dawley/Male and female, Route: Oral (gavage) once) is reported as “inactive; negative”, the mutagenic call (End Point: In vivo micronucleus, Test System: Bone marrow polychromatic erythrocytes, Species: Rat, Strain/Sex: F344/N / Male, Route: Oral) is reported as “inactive; negative” and the mutagenic call (Test System: AMES SALMONELLA TYPHIMURIUM, Strain/Indicator: TA98, Metabolic Activation: HAMSTER LIVER S-9, AROCLOR 1254, Method: STANDARD PLATE) is reported as “inactive; negative”. The mutagenic call (Test System: AMES SALMONELLA TYPHIMURIUM, Strain/Indicator: TA98, Metabolic Activation: HAMSTER, LIVER, S-9, AROCLOR 1254, Method: STANDARD PLATE) was “inactive; negative”, the mutagenic call (Test System: AMES SALMONELLA TYPHIMURIUM, Strain/Indicator: TA98, Metabolic Activation: NONE, Method: STANDARD PLATE) was “inactive; negative” and the mutagenic call (Test System: AMES SALMONELLA TYPHIMURIUM, Strain/Indicator: TA98, Metabolic Activation: RAT LIVER S-9, AROCLOR 1254, Method: STANDARD PLATE) was “inactive; negative”. The mutagenic call (Test System: AMES SALMONELLA TYPHIMURIUM, Strain/Indicator: TA98, Metabolic Activation: RAT, LIVER, S-9, AROCLOR 1254, Method: STANDARD PLATE) was “inactive; negative”, the mutagenic call (Test System: AMES SALMONELLA TYPHIMURIUM, Strain/Indicator: TA100, Metabolic Activation: HAMSTER LIVER S-9, AROCLOR 1254, Method: STANDARD PLATE) was “inactive; negative” and the mutagenic call (Test System: AMES SALMONELLA TYPHIMURIUM, Strain/Indicator: TA100, Metabolic Activation: HAMSTER, LIVER, S-9, AROCLOR 1254, Method: STANDARD PLATE) was “inactive; negative”. The mutagenic call (Test System: AMES SALMONELLA TYPHIMURIUM, Strain/Indicator: TA100, Metabolic Activation: NONE, Method: STANDARD PLATE) was “inactive; negative”, the mutagenic call (Test System: AMES SALMONELLA TYPHIMURIUM, Strain/Indicator: TA100, Metabolic Activation: RAT LIVER S-9, AROCLOR 1254, Method: STANDARD PLATE) was “inactive; negative” and the mutagenic call (Test System: AMES SALMONELLA TYPHIMURIUM, Strain/Indicator: TA100, Metabolic Activation: RAT, LIVER, S-9, AROCLOR 1254, Method: STANDARD PLATE) was “inactive; negative”. The mutagenic call (Test System: AMES SALMONELLA TYPHIMURIUM, Strain/Indicator: TA102, Metabolic Activation: HAMSTER LIVER S-9, AROCLOR 1254, Method: STANDARD PLATE) was “inactive; negative”, the mutagenic call (Test System: AMES SALMONELLA TYPHIMURIUM, Strain/Indicator: TA102, Metabolic Activation: NONE, Method: STANDARD PLATE) was “inactive; negative” and the mutagenic call (Test System: AMES SALMONELLA TYPHIMURIUM, Strain/Indicator: TA102, Metabolic Activation: RAT LIVER S-9, AROCLOR 1254, Method: STANDARD PLATE) was “inactive; negative”. The mutagenic call (Test System: AMES SALMONELLA TYPHIMURIUM, Strain/Indicator: TA1535, Metabolic Activation: HAMSTER LIVER S-9, AROCLOR 1254, Method: STANDARD PLATE) was “inactive; negative”, the mutagenic call (Test System: AMES SALMONELLA TYPHIMURIUM, Strain/Indicator: TA1535, Metabolic Activation: HAMSTER, LIVER, S-9, AROCLOR 1254, Method: STANDARD PLATE) was “inactive; negative” and the mutagenic call (Test System: AMES SALMONELLA TYPHIMURIUM, Strain/Indicator: TA1535, Metabolic Activation: NONE, Method: STANDARD PLATE) was “inactive; negative”. The mutagenic call (Test System: AMES SALMONELLA TYPHIMURIUM, Strain/Indicator: TA1535, Metabolic Activation: RAT LIVER S-9, AROCLOR 1254, Method: STANDARD PLATE) was “inactive; negative”, the mutagenic call (Test System: AMES SALMONELLA TYPHIMURIUM, Strain/Indicator: TA1535, Metabolic Activation: RAT, LIVER, S-9, AROCLOR 1254, Method: STANDARD PLATE) was “inactive; negative” and the mutagenic call (Test System: AMES SALMONELLA TYPHIMURIUM, Strain/Indicator: TA1537, Metabolic Activation: HAMSTER LIVER S-9, AROCLOR 1254, Method: STANDARD PLATE) was “inactive; negative”. The mutagenic call (Test System: AMES SALMONELLA TYPHIMURIUM, Strain/Indicator: TA1537, Metabolic Activation: HAMSTER, LIVER, S-9, AROCLOR 1254, Method: STANDARD PLATE) was “inactive; negative”, the mutagenic call (Test System: AMES SALMONELLA TYPHIMURIUM, Strain/Indicator: TA1537, Metabolic Activation: NONE, Method: STANDARD PLATE) was “inactive; negative” and the mutagenic call (Test System: AMES SALMONELLA TYPHIMURIUM, Strain/Indicator: TA1537, Metabolic Activation: RAT LIVER S-9, AROCLOR 1254, Method: STANDARD PLATE) was “inactive; negative”. For the same compound, the mutagenic call (Test System: AMES SALMONELLA TYPHIMURIUM, Strain/Indicator: TA1537, Metabolic Activation: RAT, LIVER, S-9, AROCLOR 1254, Method: STANDARD PLATE) was “inactive; negative”, the mutagenic call (Test System: Ames Salmonella typhimurium, Strain/Indicator: TA97, Metabolic Activation: Hamster, Liver, S-9, Aroclor 1254 (10 and 30%), Method: Preincubation) was “inactive; negative” and the mutagenic call (Test System: Ames Salmonella typhimurium, Strain/Indicator: TA97, Metabolic Activation: None, Method: Preincubation) was “inactive; negative”. The mutagenic call (Test System: Ames Salmonella typhimurium, Strain/Indicator: TA97, Metabolic Activation: Rat, Liver, S-9, Aroclor 1254 (10 and 30%), Method: Preincubation) was “inactive; negative”, the mutagenic call (Test System: Ames Salmonella typhimurium, Strain/Indicator: TA98, Metabolic Activation: Hamster, Liver, S-9, Aroclor 1254 (10 and 30%), Method: Preincubation) was “inactive; negative” and the mutagenic call (Test System: Ames Salmonella typhimurium, Strain/Indicator: TA98, Metabolic Activation: None, Method: Preincubation) was “inactive; negative”. The mutagenic call (Test System: Ames Salmonella typhimurium, Strain/Indicator: TA98, Metabolic Activation: Rat, Liver, S-9, Aroclor 1254 (10 and 30%), Method: Preincubation) was “inactive; negative”, the mutagenic call (Test System: Ames Salmonella typhimurium, Strain/Indicator: TA100, Metabolic Activation: Hamster, Liver, S-9, Aroclor 1254 (10 and 30%), Method: Preincubation) was “inactive; negative” and the mutagenic call (Test System: Ames Salmonella typhimurium, Strain/Indicator: TA100, Metabolic Activation: None, Method: Preincubation) was “inactive; negative”. The mutagenic call (Test System: Ames Salmonella typhimurium, Strain/Indicator: TA100, Metabolic Activation: Rat, Liver, S-9, Aroclor 1254 (10 and 30%), Method: Preincubation) was “inactive; negative”, the mutagenic call (Test System: Ames Salmonella typhimurium, Strain/Indicator: TA102, Metabolic Activation: Hamster, Liver, S-9, Aroclor 1254 (10 and 30%), Method: Preincubation) was “inactive; negative” and the mutagenic call (Test System: Ames Salmonella typhimurium, Strain/Indicator: TA102, Metabolic Activation: Hamster, Liver, S-9, Aroclor 1254 (30%), Method: Preincubation) was “inactive; negative”. The mutagenic call (Test System: Ames Salmonella typhimurium, Strain/Indicator: TA102, Metabolic Activation: None, Method: Preincubation) was “inactive; negative”, the mutagenic call (Test System: Ames Salmonella typhimurium, Strain/Indicator: TA102, Metabolic Activation: Rat, Liver, S-9, Aroclor 1254 (10 and 30%), Method: Preincubation) was “inactive; negative” and the mutagenic call (Test System: Ames Salmonella typhimurium, Strain/Indicator: TA102, Metabolic Activation: Rat, Liver, S-9, Aroclor 1254 (30%), Method: Preincubation) was “inactive; negative”. For the same compound, the mutagenic call (Test System: Ames Salmonella typhimurium, Strain/Indicator: TA104, Metabolic Activation: Hamster, Liver, S-9, Aroclor 1254 (10 and 30%), Method: Preincubation) was “inactive; negative”, the mutagenic call (Test System: Ames Salmonella typhimurium, Strain/Indicator: TA104, Metabolic Activation: Hamster, Liver, S-9, Aroclor 1254 (30%), Method: Preincubation) was “inactive; negative” and the mutagenic call (Test System: Ames Salmonella typhimurium, Strain/Indicator: TA104, Metabolic Activation: None, Method: Preincubation) was “inactive; negative”. For the same compound, the mutagenic call (Test System: Ames Salmonella typhimurium, Strain/Indicator: TA104, Metabolic Activation: Rat, Liver, S-9, Aroclor 1254 (10 and 30%), Method: Preincubation) was “inactive; negative”, the mutagenic call (Test System: Ames Salmonella typhimurium, Strain/Indicator: TA104, Metabolic Activation: Rat, Liver, S-9, Aroclor 1254 (30%), Method: Preincubation) was “inactive; negative” and the mutagenic call (Test System: Ames Salmonella typhimurium, Strain/Indicator: TA1535, Metabolic Activation: Hamster, Liver, S-9, Aroclor 1254 (10 and 30%), Method: Preincubation) was “inactive; negative”. The mutagenic call (Test System: Ames Salmonella typhimurium, Strain/Indicator: TA1535, Metabolic Activation: None, Method: Preincubation) was “inactive; negative”, the mutagenic call (Test System: Ames Salmonella typhimurium, Strain/Indicator: TA1535, Metabolic Activation: Rat, Liver, S-9, Aroclor 1254 (10 and 30%), Method: Preincubation) was “inactive; negative” and the mutagenic call (Test System: CHINESE HAMSTER OVARY CELLS, Strain/Indicator: CHO CELLS (HPRT)/6-THIOGUANINE, Metabolic Activation: NONE, Method: STANDARD PLATE) was “active; positive”. The mutagenic call (Test System: CHINESE HAMSTER OVARY CELLS, Strain/Indicator: CHO-K1/HPRT/6-THIOGUANINE, Metabolic Activation: NONE, Method: 5 HR EXPOSURE) was “inactive; negative”, the mutagenic call (Test System: CHINESE HAMSTER OVARY CELLS, Strain/Indicator: CHO-K1/HPRT/6-THIOGUANINE, Metabolic Activation: NONE, Method: 48 HR EXPOSURE) was “inactive; negative” and the mutagenic call (Test System: CHINESE HAMSTER OVARY CELLS, Strain/Indicator: CHO-K1/HPRT/6-THIOGUANINE, Metabolic Activation: RAT, LIVER, S-9, AROCLOR 1254, Method: 5 HR EXPOSURE) was “inactive; negative”.

Source: PubChem BioAssay AID1259407 (Chemical Carcinogenesis Research Information System (CCRIS), 2018)
